# Results reported in ChEMBL document CHEMBL3046635, “Synthesis and Herbicidal Activity of New Pyrazole-4-carboxamide Derivatives” (J Pestic Sci, 2004).
# Calls of active or inactive are those of the source.
# Assays:
# Ammannia multiflora [1] = assay: Pre-emergence herbicidal activity against Ammannia multiflora at 100 g a.i/ha measured after 14 days; type: functional, organism-based
# Oryza sativa [2] = assay: Phytotoxicity against Oryza sativa cv. Koshihikari (rice) at 500 g a.i/ha measured after 14 days; type: organism-based; conditions: in vivo, 336 h
# Rotala indica [3] = assay: Pre-emergence herbicidal activity against Rotala indica at 100 g a.i/ha measured after 14 days; type: functional, organism-based
# Echinochloa oryzicola [4] = assay: Pre-emergence herbicidal activity against Echinochloa oryzicola at 100 g a.i/ha measured after 14 days; type: functional, organism-based
# Pontederia vaginalis [5] = assay: Pre-emergence herbicidal activity against Monochoria vaginalis at 500 g a.i/ha measured after 14 days; type: functional, organism-based
# Pontederia vaginalis [6] = assay: Pre-emergence herbicidal activity against Monochoria vaginalis at 100 g a.i/ha measured after 14 days; type: functional, organism-based
# Elatine triandra [7] = assay: Pre-emergence herbicidal activity against Elatine triandra assessed as bleaching of stem/leaf parts; type: functional, organism-based
# Ammannia multiflora [8] = assay: Pre-emergence herbicidal activity against Ammannia multiflora assessed as bleaching of stem/leaf parts; type: functional, organism-based
# Echinochloa oryzicola [9] = assay: Pre-emergence herbicidal activity against Echinochloa oryzicola assessed as bleaching of stem/leaf parts; type: functional, organism-based
# Lindernia procumbens [10] = assay: Pre-emergence herbicidal activity against Lindernia procumbens at 100 g a.i/ha measured after 14 days; type: functional, organism-based
# Lindernia procumbens [11] = assay: Pre-emergence herbicidal activity against Lindernia procumbens assessed as bleaching of stem/leaf parts; type: functional, organism-based
# [12] = tested on: Schoenoplectiella juncoides; assay: Pre-emergence herbicidal activity against Schoenoplectiella juncoides at 100 g a.i/ha measured after 14 days; type: functional, organism-based
# Cyperus difformis [13] = assay: Pre-emergence herbicidal activity against Cyperus difformis at 500 g a.i/ha measured after 14 days; type: functional, organism-based
# Eleocharis acicularis [14] = assay: Pre-emergence herbicidal activity against Eleocharis acicularis at 100 g a.i/ha measured after 14 days; type: functional, organism-based
# Pontederia vaginalis [15] = assay: Post-emergence herbicidal activity against Monochoria vaginalis assessed as bleaching of stem/leaf parts; type: functional, organism-based; also: test concentration or dose not given here
# Oryza sativa [16] = assay: Phytotoxicity against Oryza sativa cv. Koshihikari (rice) at 100 g a.i/ha measured after 14 days; type: organism-based; conditions: in vivo, 336 h
# Elatine triandra [17] = assay: Post-emergence herbicidal activity against Elatine triandra assessed as bleaching of stem/leaf parts; type: functional, organism-based; also: test concentration or dose not given here
# Lindernia procumbens [18] = assay: Post-emergence herbicidal activity against Lindernia procumbens assessed as bleaching of stem/leaf parts; type: functional, organism-based; also: test concentration or dose not given here
# Eleocharis acicularis [19] = assay: Pre-emergence herbicidal activity against Eleocharis acicularis assessed as bleaching of stem/leaf parts; type: functional, organism-based
# Cyperus difformis [20] = assay: Post-emergence herbicidal activity against Cyperus difformis assessed as bleaching of stem/leaf parts; type: functional, organism-based; also: test concentration or dose not given here
# Elatine triandra [21] = assay: Pre-emergence herbicidal activity against Elatine triandra at 100 g a.i/ha measured after 14 days; type: functional, organism-based
# [22] = tested on: Schoenoplectiella juncoides; assay: Post-emergence herbicidal activity against Schoenoplectiella juncoides assessed as bleaching of stem/leaf parts; type: functional, organism-based; also: test concentration or dose not given here
# Elatine triandra [23] = assay: Pre-emergence herbicidal activity against Elatine triandra at 500 g a.i/ha measured after 14 days; type: functional, organism-based
# Echinochloa oryzicola [24] = assay: Post-emergence herbicidal activity against Echinochloa oryzicola assessed as bleaching of stem/leaf parts; type: functional, organism-based; also: test concentration or dose not given here
# [25] = tested on: Schoenoplectiella juncoides; assay: Pre-emergence herbicidal activity against Schoenoplectiella juncoides at 500 g a.i/ha measured after 14 days; type: functional, organism-based
# [26] = tested on: Schoenoplectiella juncoides; assay: Pre-emergence herbicidal activity against Schoenoplectiella juncoides assessed as bleaching of stem/leaf parts; type: functional, organism-based
# Ammannia multiflora [27] = assay: Pre-emergence herbicidal activity against Ammannia multiflora at 500 g a.i/ha measured after 14 days; type: functional, organism-based
# Pontederia vaginalis [28] = assay: Pre-emergence herbicidal activity against Monochoria vaginalis assessed as bleaching of stem/leaf parts; type: functional, organism-based
# Echinochloa oryzicola [29] = assay: Pre-emergence herbicidal activity against Echinochloa oryzicola at 500 g a.i/ha measured after 14 days; type: functional, organism-based
# Cyperus difformis [30] = assay: Pre-emergence herbicidal activity against Cyperus difformis assessed as bleaching of stem/leaf parts; type: functional, organism-based
# Ammannia multiflora [31] = assay: Post-emergence herbicidal activity against Ammannia multiflora assessed as bleaching of stem/leaf parts; type: functional, organism-based; also: test concentration or dose not given here
# Rotala indica [32] = assay: Post-emergence herbicidal activity against Rotala indica assessed as bleaching of stem/leaf parts; type: functional, organism-based; also: test concentration or dose not given here
# Rotala indica [33] = assay: Pre-emergence herbicidal activity against Rotala indica assessed as bleaching of stem/leaf parts; type: functional, organism-based
# Eleocharis acicularis [34] = assay: Pre-emergence herbicidal activity against Eleocharis acicularis at 500 g a.i/ha measured after 14 days; type: functional, organism-based
# Eleocharis acicularis [35] = assay: Post-emergence herbicidal activity against Eleocharis acicularis assessed as bleaching of stem/leaf parts; type: functional, organism-based; also: test concentration or dose not given here
# Lindernia procumbens [36] = assay: Pre-emergence herbicidal activity against Lindernia procumbens at 500 g a.i/ha measured after 14 days; type: functional, organism-based
# Rotala indica [37] = assay: Pre-emergence herbicidal activity against Rotala indica at 500 g a.i/ha measured after 14 days; type: functional, organism-based
# Cyperus difformis [38] = assay: Pre-emergence herbicidal activity against Cyperus difformis at 100 g a.i/ha measured after 14 days; type: functional, organism-based
SMILES,Activity (Oryza sativa [2]),Activity (Pontederia vaginalis [5]),Activity (Elatine triandra [7]),Activity (Ammannia multiflora [8]),Activity (Echinochloa oryzicola [9]),Activity (Lindernia procumbens [11]),Activity (Cyperus difformis [13]),Activity (Pontederia vaginalis [15]),Activity (Elatine triandra [17]),Activity (Lindernia procumbens [18]),Activity (Eleocharis acicularis [19]),Activity (Cyperus difformis [20]),Activity [22],Activity (Elatine triandra [23]),Activity (Echinochloa oryzicola [24]),Activity [25],Activity [26],Activity (Ammannia multiflora [27]),Activity (Pontederia vaginalis [28]),Activity (Echinochloa oryzicola [29]),further results
Cn1cc(C(=O)NOc2ccccc2)c(OCc2cccc(C(F)(F)F)c2)n1,Non-toxic,Active,Active,Active,Active,Active,Active,Active,Active,Active,Active,Active,Active,Active,Active,Active,Active,Active,Active,Active,Activity (Ammannia multiflora [1]): Active; Activity (Rotala indica [3]): Active; Activity (Echinochloa oryzicola [4]): Active; Activity (Pontederia vaginalis [6]): Active; Activity (Lindernia procumbens [10]): Active; Activity [12]: inactive; Activity (Eleocharis acicularis [14]): Active; Activity (Oryza sativa [16]): Non-toxic; Activity (Elatine triandra [21]): Active; Activity (Cyperus difformis [30]): Active; Activity (Ammannia multiflora [31]): Active; Activity (Rotala indica [32]): Active; Activity (Rotala indica [33]): Active; Activity (Eleocharis acicularis [34]): Active; Activity (Eleocharis acicularis [35]): Active; Activity (Lindernia procumbens [36]): Active; Activity (Rotala indica [37]): Active; Activity (Cyperus difformis [38]): Active
CCONC(=O)c1cn(C(F)F)nc1OCc1cccc(C(F)(F)F)c1,Non-toxic,Active,Active,Active,Active,Active,Active,Active,Active,Active,Active,Active,Active,Active,Active,Active,Active,Active,Active,Active,Activity (Ammannia multiflora [1]): Active; Activity (Rotala indica [3]): Active; Activity (Echinochloa oryzicola [4]): inactive; Activity (Pontederia vaginalis [6]): Active; Activity (Lindernia procumbens [10]): Active; Activity [12]: Active; Activity (Oryza sativa [16]): Non-toxic; Activity (Elatine triandra [21]): Active; Activity (Cyperus difformis [30]): Active; Activity (Ammannia multiflora [31]): Active; Activity (Rotala indica [32]): Active; Activity (Rotala indica [33]): Active; Activity (Eleocharis acicularis [35]): Active; Activity (Lindernia procumbens [36]): Active; Activity (Rotala indica [37]): Active; Activity (Cyperus difformis [38]): Active
Cn1cc(C(=O)Nc2ccc(C#N)cc2)c(OCc2cccc(C(F)(F)F)c2)n1,Non-toxic,inactive,Active,Active,Active,Active,inactive,Active,Active,Active,Active,Active,Active,Active,Active,inactive,Active,Active,Active,inactive,Activity (Cyperus difformis [30]): Active; Activity (Ammannia multiflora [31]): Active; Activity (Rotala indica [32]): Active; Activity (Rotala indica [33]): Active; Activity (Eleocharis acicularis [34]): inactive; Activity (Eleocharis acicularis [35]): Active; Activity (Lindernia procumbens [36]): Active; Activity (Rotala indica [37]): Active
Cn1cc(C(=O)Nc2ccc(C(C)(C)C)cc2)c(OCc2cccc(C(F)(F)F)c2)n1,Non-toxic,inactive,Active,Active,Active,Active,inactive,Active,Active,Active,Active,Active,Active,inactive,Active,inactive,Active,inactive,Active,inactive,Activity (Cyperus difformis [30]): Active; Activity (Ammannia multiflora [31]): Active; Activity (Rotala indica [32]): Active; Activity (Rotala indica [33]): Active; Activity (Eleocharis acicularis [34]): inactive; Activity (Eleocharis acicularis [35]): Active; Activity (Lindernia procumbens [36]): inactive; Activity (Rotala indica [37]): inactive
CNC(=O)c1cn(C)nc1OCc1cccc(C(F)(F)F)c1,Non-toxic,inactive,Active,Active,Active,Active,inactive,Active,Active,Active,Active,Active,Active,inactive,Active,inactive,Active,inactive,Active,inactive,Activity (Cyperus difformis [30]): Active; Activity (Ammannia multiflora [31]): Active; Activity (Rotala indica [32]): Active; Activity (Rotala indica [33]): Active; Activity (Eleocharis acicularis [34]): inactive; Activity (Eleocharis acicularis [35]): Active; Activity (Lindernia procumbens [36]): inactive; Activity (Rotala indica [37]): inactive
Cn1cc(C(=O)NOc2ccc(C(C)(C)C)cc2)c(OCc2cccc(C(F)(F)F)c2)n1,Non-toxic,inactive,Active,Active,Active,Active,inactive,Active,Active,Active,Active,Active,Active,inactive,Active,inactive,Active,inactive,Active,inactive,Activity (Cyperus difformis [30]): Active; Activity (Ammannia multiflora [31]): Active; Activity (Rotala indica [32]): Active; Activity (Rotala indica [33]): Active; Activity (Eleocharis acicularis [34]): inactive; Activity (Eleocharis acicularis [35]): Active; Activity (Lindernia procumbens [36]): inactive; Activity (Rotala indica [37]): inactive
CCONC(=O)c1cn(C(C)(C)C)nc1OCc1cccc(C(F)(F)F)c1,Non-toxic,inactive,Active,Active,Active,Active,inactive,Active,Active,Active,Active,Active,Active,inactive,Active,inactive,Active,inactive,Active,inactive,Activity (Cyperus difformis [30]): Active; Activity (Ammannia multiflora [31]): Active; Activity (Rotala indica [32]): Active; Activity (Rotala indica [33]): Active; Activity (Eleocharis acicularis [34]): inactive; Activity (Eleocharis acicularis [35]): Active; Activity (Lindernia procumbens [36]): inactive; Activity (Rotala indica [37]): inactive
